From PMC3151534 (Bioorganic & medicinal chemistry, 2010)
Several values for one entry are separate records, joined by “and”; a condition that tells them apart may be missing. Identical values can stand only once.

What was measured:
tumor cells = conditions: cited from earlier work
in vitro = conditions: human; for recovery at 90 min, 10 μM: Caco-2
[1] = tested on: STAT3–STAT3:DNA binding activity in NIH3T3/vSrc; format: cell-based, mouse; conditions: 100 μM; for suppression of STAT3-DNA binding activity (in words): 6 and 24 hrs
STAT5 = STAT5 fluorescence polarization; format: binding; conditions: data not shown
STAT3-SH2 domain = STAT3-SH2 domain (Mus musculus, UniProt P42227); test: STAT3 fluorescence polarization; format: binding, murine; conditions: non-phosphorylated analogs; data not shown
[2] = Permeability and efflux analysis in Caco-2 cells; conditions: human
[3] = tested on: DU145, Panc-1, NIH3T3/vSrc and MDA468 cells; format: cell-based; conditions: 24 hrs, lower concentrations; data not shown
gp130 (Homo sapiens) = gp130 (Homo sapiens) (UniProt P40189); test: SPR; conditions: cited from earlier work
Chain of gp130 (Homo sapiens) (P40189 whole entry, looked up): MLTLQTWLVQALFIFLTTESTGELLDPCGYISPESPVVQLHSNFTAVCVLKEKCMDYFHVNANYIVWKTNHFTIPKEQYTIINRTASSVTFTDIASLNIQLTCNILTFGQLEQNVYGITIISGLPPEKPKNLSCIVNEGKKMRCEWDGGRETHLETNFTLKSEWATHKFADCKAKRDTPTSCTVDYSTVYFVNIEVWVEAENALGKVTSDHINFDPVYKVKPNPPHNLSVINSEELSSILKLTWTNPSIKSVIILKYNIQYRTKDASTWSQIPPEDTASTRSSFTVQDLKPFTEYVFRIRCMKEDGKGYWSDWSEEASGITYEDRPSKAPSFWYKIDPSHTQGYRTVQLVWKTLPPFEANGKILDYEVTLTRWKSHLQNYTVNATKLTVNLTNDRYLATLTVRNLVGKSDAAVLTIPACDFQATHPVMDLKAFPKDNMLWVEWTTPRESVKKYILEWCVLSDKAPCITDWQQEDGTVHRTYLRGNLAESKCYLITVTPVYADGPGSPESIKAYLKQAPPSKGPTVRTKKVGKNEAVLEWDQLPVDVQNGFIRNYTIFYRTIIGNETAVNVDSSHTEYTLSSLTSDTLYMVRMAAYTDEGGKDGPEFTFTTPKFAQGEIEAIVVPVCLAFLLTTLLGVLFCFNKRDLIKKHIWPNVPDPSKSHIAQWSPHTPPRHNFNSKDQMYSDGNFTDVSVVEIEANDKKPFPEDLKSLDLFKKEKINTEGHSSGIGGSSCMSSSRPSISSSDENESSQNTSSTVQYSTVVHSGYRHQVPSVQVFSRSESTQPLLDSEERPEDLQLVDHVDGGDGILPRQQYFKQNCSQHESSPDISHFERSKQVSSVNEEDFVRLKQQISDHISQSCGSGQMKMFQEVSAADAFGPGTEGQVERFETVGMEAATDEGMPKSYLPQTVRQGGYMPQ

Chain of STAT3-SH2 domain (P42227 whole entry, the tested form may be a part): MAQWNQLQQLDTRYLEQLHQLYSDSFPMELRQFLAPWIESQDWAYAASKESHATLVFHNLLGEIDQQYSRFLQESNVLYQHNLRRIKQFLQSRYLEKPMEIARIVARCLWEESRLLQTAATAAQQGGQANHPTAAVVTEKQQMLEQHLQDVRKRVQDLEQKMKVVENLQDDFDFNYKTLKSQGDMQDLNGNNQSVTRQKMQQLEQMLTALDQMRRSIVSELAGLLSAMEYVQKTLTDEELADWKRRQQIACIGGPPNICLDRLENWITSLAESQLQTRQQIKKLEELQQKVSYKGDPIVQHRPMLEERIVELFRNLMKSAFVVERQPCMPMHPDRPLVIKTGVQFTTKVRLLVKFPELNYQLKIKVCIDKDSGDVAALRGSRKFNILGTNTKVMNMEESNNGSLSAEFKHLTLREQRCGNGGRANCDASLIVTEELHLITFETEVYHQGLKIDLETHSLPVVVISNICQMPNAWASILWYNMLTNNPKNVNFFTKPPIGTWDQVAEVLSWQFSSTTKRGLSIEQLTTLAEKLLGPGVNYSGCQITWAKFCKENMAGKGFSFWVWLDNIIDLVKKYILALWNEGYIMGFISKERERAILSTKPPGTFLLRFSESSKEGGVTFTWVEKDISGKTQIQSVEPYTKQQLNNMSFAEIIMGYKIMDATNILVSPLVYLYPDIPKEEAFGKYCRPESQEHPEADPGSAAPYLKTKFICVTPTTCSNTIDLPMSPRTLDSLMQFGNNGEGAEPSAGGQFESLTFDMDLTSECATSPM
Chain of STAT3 (P40763 2-770): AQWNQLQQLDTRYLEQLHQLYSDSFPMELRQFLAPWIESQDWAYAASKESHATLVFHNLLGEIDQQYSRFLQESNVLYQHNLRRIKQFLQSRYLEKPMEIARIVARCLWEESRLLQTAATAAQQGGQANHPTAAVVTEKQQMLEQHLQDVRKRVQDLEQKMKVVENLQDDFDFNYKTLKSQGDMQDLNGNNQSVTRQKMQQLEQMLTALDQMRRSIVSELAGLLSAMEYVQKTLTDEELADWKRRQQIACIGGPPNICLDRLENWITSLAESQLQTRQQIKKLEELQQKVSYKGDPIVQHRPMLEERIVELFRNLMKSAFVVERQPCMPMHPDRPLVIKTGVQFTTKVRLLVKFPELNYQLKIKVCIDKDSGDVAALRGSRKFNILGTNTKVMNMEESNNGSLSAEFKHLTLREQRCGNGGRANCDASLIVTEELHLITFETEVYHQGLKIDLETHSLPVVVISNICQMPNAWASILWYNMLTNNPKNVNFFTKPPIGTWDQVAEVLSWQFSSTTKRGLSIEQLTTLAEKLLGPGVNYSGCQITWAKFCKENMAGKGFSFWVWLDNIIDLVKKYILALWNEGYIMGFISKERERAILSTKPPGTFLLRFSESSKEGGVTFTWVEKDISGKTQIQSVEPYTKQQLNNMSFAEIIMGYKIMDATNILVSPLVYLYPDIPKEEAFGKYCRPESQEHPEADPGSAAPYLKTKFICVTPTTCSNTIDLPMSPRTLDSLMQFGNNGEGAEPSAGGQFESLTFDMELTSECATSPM

| inhibition of the STAT3–phosphopeptide complex (FP) (STAT3-SH2 domain) | Papp at 90 min, 10 μM [2] [×10⁻⁶ cm/s] | Compound | recovery at 90 min, 10 μM (in vitro) [%] | STAT3 activity after 24 h [1] | effect on STAT5 in FP assay (STAT5) | suppression of STAT3-DNA binding activity (in words) [1] | further results |
| --- | --- | --- | --- | --- | --- | --- | --- |
| – | – | CC(C)C[C@H](NC(=O)[C@H](Cc1ccc(OP(=O)(O)O)cc1)NC(=O)c1ccc(C#N)cc1)C(=O)O [ISS610] | – | – | – | – | dosage required for cellular activities (tumor cells): mM dosages |
| – | – | CC(C)C[C@H](NC(=O)[C@H](Cc1ccc(OP(=O)(O)O)cc1)NC(=O)c1ccc(C#N)cc1)C(=O)Nc1ccc(C(=O)NCc2ccccc2)c(-c2ccc(C(N)=O)cc2)c1 [Inhibitor 14aa, 4-((S)-3-((S)-1-(6-(benzylcarbamoyl)-4′-carbamoylbiphenyl-3-ylamino)-4-methyl-1-oxopentan-2-ylamino)-2-(4-cyanobenzamido)-3-oxopropyl)phenyl dihydrogen phosphate] | 1 to 2 | partially recovered | no effect | – | suppression of STAT3-DNA binding activity ([1]; after 6 h): 80% and > 80% |
| neither peptidomimetic inhibited | < 2 | CC(C)C[C@H](NC(=O)[C@H](Cc1ccc(O)cc1)NC(=O)c1ccc(C#N)cc1)C(=O)Nc1ccc(C(=O)NCc2ccccc2)c(-c2ccc(C(N)=O)cc2)c1 [Inhibitor 14aa-OH] | – | – | – | almost the same potency as 14aa | – |
| – | – | CC(C)C[C@H](NC(=O)[C@H](Cc1ccc(OP(=O)(O)O)cc1)NC(=O)c1ccc(C#N)cc1)C(=O)Nc1cc(C(=O)NCc2ccccc2)cc(-c2ccc(C(N)=O)cc2)c1 [Inhibitor 14ba, 4-((S)-3-(((S)-1-((5-(benzylcarbamoyl)-4′-carbamoyl-[1,1′-biphenyl]-3-yl)amino)-4-methyl-1-oxopentan-2-yl)amino)-2-(4-cyanobenzamido)-3-oxopropyl)phenyl dihydrogen phosphate] | 1 to 2 | partially recovered | no effect | – | Papp A→B at 90 min, 10 μM (in vitro; Caco-2, pH 7.4): < 0.5 ×10⁻⁶ cm/s; anti-cancer activity (cell viability, in words) [3]: only limited anti-cancer activity |
| neither peptidomimetic inhibited | < 2 | CC(C)C[C@H](NC(=O)[C@H](Cc1ccc(O)cc1)NC(=O)c1ccc(C#N)cc1)C(=O)Nc1cc(C(=O)NCc2ccccc2)cc(-c2ccc(C(N)=O)cc2)c1 [Inhibitor 14ba-OH, N^3-benzyl-5-((S)-2-((S)-2-(4-cyanobenzamido)-3-(4-hydroxyphenyl)propanamido)-4-methylpentanamido)-[1,1′-biphenyl]-3,4′-dicarboxamide] | – | – | – | negligible disruption | – |
| – | – | STAT3 (from UniProt P40763) | – | – | – | – | Kd (gp130 (Homo sapiens)): 24 nM |
